As usually defined, the clearance is the rate of elimination divided by the concentration.

The values that follow come from patent US9150528B2, “Compound having detrusor muscle-contracting activity and urethral sphincter muscle-relaxing activity” (ONO PHARMACEUTICAL CO., LTD., priority 2009, dated 2015).

For series [1], the system named is urinary excretion dysfunction models. Put plainly: Urinary excretion dysfunction models, maximal urinary flow rate. It is filed as in vivo. As to conditions: 60 ng/kg/h continuous intravenous, cynomolgus monkey urinary excretion dysfunction model. The text has this: Urinary excretion dysfunction models were constructed in accordance with the following procedure. After anesthesia of cynomolgus monkeys, the region from the suprapubic area to the abdominal area was shaved, followed by fixing in a dorsal position. The shaved region was disinfected and the four legs were fixed. Using an electrosurgical knife, the skin region from the suprapubic area to the umbilical area and the peritoneal membrane were sequentially incised, followed by damage to the pelvic nerve and removal of the uterus. After the surgical operation, viccillin-containing physiological saline was added dropwise to the incised area. The peritoneal membrane and skin of the incised area were sutured with silk threads and disinfected. Viccillin was administered for 7 consecutive days after surgery. Meloxicam was administered once daily for 7 consecutive days to manage pain in the perioperative period.
The cynomolgus monkeys were seated on monkey chairs, followed by retention of the hands and legs with strings. Injectable water was administered orally, and physiological saline and the test compound (60 ng/kg/h) were continuously administered intravenously to allow urination freely. The maximal urinary flow rate was measured using a urine weighing sensor.

The next series has as its system normal rats. Put plainly: Blood pressures and heart rates in normal rats. It is filed as in vivo, rat. As to conditions: 0.3 mg/kg, oral. How it is done: The blood pressures and heart rates of female Wistar rats were measured in accordance with the following procedure. On the day of measurement, indwelling of catheters for blood pressure•heart rate measurement was carried out under anesthesia with ether. The back of the neck of each rat was incised; a feeding catheter (Atom Medical Corporation) filled with heparinized physiological saline was introduced from the back of the neck; the catheter was inserted into the common carotid artery; and the surgical incision was closed. The measurements were carried out in a Bollmann cage under the conscious state, and the evaluations were carried out after confirming that the individual parameters were stabilized. After confirming the stabilization of blood pressure and heart rate, the test compound which was prepared using injectable water containing equimolar NaOH was orally administered at a dose of 5 mL/kg.
The catheter drawn from the back of the neck was connected to a pressure transducer (DX-200, NIHON KOHDEN CORP.), and the blood pressures and heart rates were measured using an amplifier for pressure measurement (Gould Instrument). The blood pressures and heart rates were recorded using a recorder (LINEARCORDERWR3320, GRAPHTEC). For each individual, rates of increase and decrease in average blood pressure and heart rate before administration and 30, 60, 120, and 180 min after administration were calculated with respect to the values of each individual before administration. Changes in blood pressure and heart rate before and after administration of the test compound were evaluated.

Series [2] can be described thus: Systemic clearance after intravenous administration. It is filed as in vivo. As to conditions: plasma, cynomolgus monkey, 0.001 mg/mL/kg. The protocol:
Equimolar sodium hydroxide and injectable distilled water were added to each of the test compounds to prepare a 1 mg/mL aqueous solution. The aqueous solution was diluted with physiological saline until the concentration reached 0.001 mg/mL and was rapidly administered at a dose of 0.001 mg/mL/kg to cynomolgus monkey through the cephalic vein. Via heparinized syringes, 2 min, 5 min, 15 min, 30 min, 1 hr, 2 hr, 4 hr, 6 hr, 8 hr and 24 hr after administration, blood was drawn from the cephalic vein (non-administered sites). After centrifugation, blood plasma was sampled and stored at −80° C. before pretreatment. The blood plasma was pretreated by mixing with acetonitrile and centrifuging to remove proteins followed by measurement by LC/MS/MS. Changes of concentration in blood plasma was analyzed using WinNonlin4.0.1 to evaluate the systemic clearance of the test compound.

In the case of `C=CCC[C@](C)(O)C/C=C/[C@H]1CCC(=O)[C@@H]1CCSc1nc(C(=O)O)cs1` [Comparative compound D, 2-[(2-{(1R,2R)-2-[(1E,4S)-4-hydroxy-4-methyl-1,7-octadien-1-yl]-5-oxocyclopentyl}ethyl)thio]-1,3-thiazole-4-carboxylic acid], in series [1], the “improvement in maximal urinary flow rate over the vehicle group” value stood at 36%. In the series with normal rats, the “effect on the blood pressure” value is on record as “tendency to decrease” and the “increase in heart rate” value is “about 20%”. This compound returned a clearance in series [2] of 23.9 mL/min/kg.
